A value given as a limit tells only on which side of the number the result lay.

What is called solubility is how much of the substance goes into solution per volume.

Common to all, as to assay type: physicochemical
Data set [1] can be described thus: Estimated solubility at 55° C. in recrystallization solvents. The conditions noted are these: organic solvent or mixture, thermodynamic from solid. As for the experimental part: Recrystallization of Compound 1 Crystalline Form A was investigated in various solvent conditions. […] One of water, heptane or IPE was added as an anti-solvent to maintain the saturation state. Recrystallization in heptane yielded a sufficient amount of solids for analysis after gradual cooling. […] Crystals obtained from THF, trifluoroethanol, THF/heptane, chloroform/heptane, chloroform/IPE and trifluoroethanol/IPE were characterized as solvates by XRPD and TGA/DSC analysis. Crystals obtained from all other solvents were confirmed to be Compound 1 Crystalline Form A based on XRPD analysis.

Data set [2] is described as follows: Solubility in 200 mM phosphate buffer (pH 6.8). The conditions noted are these: for solubility at 20 h: phosphate buffer, pH 6.8, aqueous buffer, thermodynamic from solid; for solubility: 20 hrs, hemihydrate. The protocol:
About 2 mg of Compound 1 Crystalline Form A made in example 2 or Compound 1 Crystalline Form I made in example 3-2 and 2 mL of 200 mM phosphate buffer (pH 6.8) were added into a glass test tube. The test tube was shaken vigorously and incubated at 10° C., 20° C., 30° C. or 40° C. for 20 hrs. After the incubation, the suspension was centrifuged and the supernatant was filtered through a 0.22 μm pore membrane filter. The filtrate solutions were diluted 2-fold with 50 mM sodium perchlorate buffer (pH 2.5)/acetonitrile (1/1, v/v). Concentration was determined by HPLC.

A short description of data set [3]: Solubility in water/DMSO at 60° C. The settings on record: for solubility / solubility at 24 h: Water/DMSO at 60° C.; for solubility: hemihydrate; for solubility at 24 h: water/DMSO, 60 °C, organic solvent or mixture, thermodynamic from solid. As for the experimental part:
A solution of DMSO/water with known water content was added to a glass vial and heated to 60° C. Crystals of Compound 1 Crystalline Form I or Compound 1 Crystalline Form A were added to the vial until a suspension was obtained. The suspension was stirred via magnetic stirring and incubated for 24 hrs at 60° C. After incubation, the suspension was filtered at 60° C. 10 μL of the filtrate was sampled and diluted with 990 μL of acetonitrile/water (1/1, v/v). Sample concentration of Compound 1 was determined by HPLC. […] The experimental solubility results are summarized below in Tables 5 and 6.

A short description of data set [4]: Hygroscopicity of crystalline forms.
Data set [5] in a line: Chemical and optical stability of crystalline forms on storage.
The mark [6] stands for this setting: 60° C./75% relative humidity (open) for at least eight weeks.
[7] abbreviates: 80° C. (closed) for at least eight weeks.

With `Cc1[nH]ncc1-c1cc2nc([C@@H]3CC4CCN3CC4)[nH]c(=O)c2s1` [Compound 1 Crystalline Form A, 2-[(2S)-1-azabicyclo[2.2.2]oct-2-yl]-6-(3-methyl-1H-pyrazol-4-yl)thieno[3,2-d]pyrimidin-4(3H)-one hemihydrate], the solubility was below 2 mg/mL in data set [1] (solvent Acetone); below 2 mg/mL in data set [1] (solvent Acetonitrile); 2.8 mg/mL in data set [1] (solvent Chloroform); 10.5 mg/mL in data set [1] (solvent Ethanol); below 2 mg/mL in data set [1] (solvent Ethyl acetate); 10 mg/mL in data set [1] (solvent Formamide). For the same compound, the solubility in data set [1] (solvent IPA) is 6.7 mg/mL; in data set [1] (solvent MEK), 2.9 mg/mL; in data set [1] (solvent Methanol), 33.3 mg/mL; in data set [1] (solvent THF) it was 9.1 mg/mL; in data set [1] (solvent Toluene) it was below 2 mg/mL; in data set [1] (solvent Trifluoroethanol) it was above 100 mg/mL. In addition, the solubility in data set [3] (0 % water by volume) amounted to 153.8 mg/mL; in data set [3] (6 % water by volume), 73.4 mg/mL. Also, the solubility at 20 h in data set [2] (10 °C) turned out to be 0.102 mg/mL; in data set [2] (20 °C), 0.104 mg/mL; in data set [2] (30 °C), 0.115 mg/mL; in data set [2] (40 °C), 0.136 mg/mL. Besides, the solubility at 24 h came out at 51 mg/mL in data set [3] (8.5 % water by volume); 44 mg/mL in data set [3] (8.7 % water by volume); 38.5 mg/mL in data set [3] (9.8 % water by volume); 32.1 mg/mL in data set [3] (10.7 % water by volume); 28.6 mg/mL in data set [3] (11.3 % water by volume); 25.7 mg/mL in data set [3] (11.8 % water by volume). Also, the Hygroscopicity result in data set [4] (at 25° C.) and in data set [4] (at 40° C.) was “not hygroscopic” throughout. The “Chemical and optical stability” value in data set [5] (setting [6]) is “chemically and optically stable”; in data set [5] (setting [7]) it was “chemically and optically stable”.
Turning to `Cc1[nH]ncc1-c1cc2nc([C@@H]3CC4CCN3CC4)[nH]c(=O)c2s1` [Compound 1 Crystalline Form I, 2-[(2S)-1-azabicyclo[2.2.2]oct-2-yl]-6-(3-methyl-1H-pyrazol-4-yl)thieno[3,2-d]pyrimidin-4(3H)-one hemihydrate], the solubility in data set [2] (10 °C) stood at 0.063 mg/mL; in data set [2] (20 °C), 0.071 mg/mL; in data set [2] (30 °C), 0.08 mg/mL; in data set [2] (40 °C), 0.099 mg/mL. The “Solubility in water/DMSO relative to Compound 1 Crystalline Form A” value in data set [3] (at 60° C. (FIG. 7)) is reported as “lower”. Moreover, the solubility at 24 h came out at 134 mg/mL in data set [3] (0 % water by volume); 108 mg/mL in data set [3] (3 % water by volume); 92.2 mg/mL in data set [3] (4 % water by volume); 74.8 mg/mL in data set [3] (4.5 % water by volume); 65.8 mg/mL in data set [3] (6 % water by volume); 34.8 mg/mL in data set [3] (8 % water by volume). Besides, the Hygroscopicity result in data set [4] (at 25° C.) and in data set [4] (at 40° C.) was “not hygroscopic” each time. In addition, the “Chemical and optical stability” value in data set [5] (setting [6]) was “chemically and optically stable”; in data set [5] (setting [7]) it was “chemically and optically stable”.
